Laboratory results reported in publication PMC10733197, “Utilization of Rosuvastatin and Endogenous Biomarkers in Evaluating the Impact of Ritlecitinib on BCRP, OATP1B1, and OAT3 Transporter Activity” (Pharmaceutical Research, 2023).

Key:
OAT3 = target: T1, OAT3 (Homo sapiens, UniProt Q8TCC7); experiment: OAT3-mediated 3H-E3S uptake inhibition in transfected HEK293 cells; format: cell-based; settings: for Fraction Inhibited / Triggers Drug Interaction Cutoff / Cmax,u/IC50 ratio: OAT3; for Fraction Inhibited: Cmax,u/(Cmax,u + IC50) (Eq. 2); for Triggers Drug Interaction Cutoff: Cmax,u/IC50 cutoff 0.1 (FDA); for Triggers Drug Interaction Cutoff / Cmax,u/IC50 ratio: 0.02 (EMA); for Cmax,u/IC50 ratio: cutoff 0.1 (FDA), ritlecitinib 200 mg; for IC50: renal OAT3, E3S as substrate (0.1 µM per table footnote), 3 min, HEK293, mean ± SD, n = 3
T1 construct: expressed in transfected cells; host or cells: HEK293
T1 sequence (Q8TCC7 1-542): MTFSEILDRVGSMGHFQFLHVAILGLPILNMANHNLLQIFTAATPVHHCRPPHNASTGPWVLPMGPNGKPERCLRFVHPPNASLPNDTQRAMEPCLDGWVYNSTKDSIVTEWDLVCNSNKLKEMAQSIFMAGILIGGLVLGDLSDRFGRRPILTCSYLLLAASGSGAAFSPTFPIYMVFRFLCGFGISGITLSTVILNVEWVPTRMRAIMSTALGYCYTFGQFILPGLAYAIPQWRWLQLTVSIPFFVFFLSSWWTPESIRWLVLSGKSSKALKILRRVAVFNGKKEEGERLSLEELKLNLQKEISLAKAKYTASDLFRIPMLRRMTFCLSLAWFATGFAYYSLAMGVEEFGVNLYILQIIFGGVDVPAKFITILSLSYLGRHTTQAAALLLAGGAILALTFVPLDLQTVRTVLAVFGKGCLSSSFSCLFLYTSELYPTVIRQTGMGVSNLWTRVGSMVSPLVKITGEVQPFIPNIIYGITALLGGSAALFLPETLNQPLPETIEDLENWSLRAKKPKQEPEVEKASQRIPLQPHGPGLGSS
Experimental: (§1) Sources of human embryonic kidney (HEK) 293 cells expressing individual transfected human solute carriers (SLC), test substrates, and cell culture reagents, as well as detailed cell culture methods, incubations, and sample processing, have been described previously. SLC included hepatic OATP1B1, OATP1B3, and renal OAT1 and OAT3. […] Likewise, the uptake of non-labeled rosuvastatin (Biosynth, San Diego, CA) at 0.3—0.5 µM was determined for OATP1B1 and OATP1B3 at 1—3 min, and CP-I (Frontier Specialty Chemicals, Logan, UT) at 0.1 µM was determined for OATP1B1 and OATP1B3 at 10 min [14].
(§2) In all cases, ritlecitinib (0.018 to 1000 µM) and metabolite M2 (0.018 to 300 µM) was tested over a wide range of final concentrations dissolved in dimethyl sulfoxide (the final concentration of dimethyl sulfoxide in the assays was 1% v/v). For each transporter, the IC50 was estimated using a four-parameter logistic equation (Eq. 1) using GraphPad Prism software (GraphPad Software Inc, La Jolla, CA).1 %UptakeActivity=Bottom+(Top-Bottom)/1+10^(LogIC50-inhib*HillSlope)
At the end of the uptake and inhibition experiment, cellular accumulation of ^3H-PAH and ^3H-E3S was determined using liquid scintillation counting as previously described. Rosuvastatin uptake was determined using a tandem high performance liquid chromatography (LC)-mass spectrometry (MS) assay.
Assumes no substrate-dependent shift in IC50 versus PDA.^1 Each OAT form was singularly transfected in human embryonic kidney 293 cells.

CYP1A2 = settings: cited from earlier work
CYP3A = settings: cited from earlier work
OATP1B1 = target: T2, OATP1B1 (Homo sapiens, UniProt Q9Y6L6); experiment: OATP1B1-mediated CP-I uptake inhibition in transfected HEK293 cells; format: cell-based
T2 construct: expressed in transfected cells; host or cells: HEK293
T2 sequence (Q9Y6L6 1-691): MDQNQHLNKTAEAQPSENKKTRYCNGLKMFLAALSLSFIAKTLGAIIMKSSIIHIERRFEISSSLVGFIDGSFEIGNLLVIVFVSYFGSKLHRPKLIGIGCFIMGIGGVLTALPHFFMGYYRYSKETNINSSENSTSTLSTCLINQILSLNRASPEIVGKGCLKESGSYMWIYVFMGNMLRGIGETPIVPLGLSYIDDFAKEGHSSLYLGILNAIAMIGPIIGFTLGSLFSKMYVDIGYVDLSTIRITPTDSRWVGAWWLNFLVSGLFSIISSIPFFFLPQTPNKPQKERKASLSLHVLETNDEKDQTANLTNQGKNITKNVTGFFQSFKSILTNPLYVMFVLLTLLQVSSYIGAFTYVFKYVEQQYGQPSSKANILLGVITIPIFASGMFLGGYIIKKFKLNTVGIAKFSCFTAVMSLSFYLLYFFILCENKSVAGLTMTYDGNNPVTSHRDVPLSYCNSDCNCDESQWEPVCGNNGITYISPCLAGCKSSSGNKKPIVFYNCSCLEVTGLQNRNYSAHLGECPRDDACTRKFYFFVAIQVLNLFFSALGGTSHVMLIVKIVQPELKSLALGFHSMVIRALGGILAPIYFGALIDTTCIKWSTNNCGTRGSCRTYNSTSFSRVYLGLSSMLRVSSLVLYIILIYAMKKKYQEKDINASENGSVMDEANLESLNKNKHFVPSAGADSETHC
Experimental: as §1, §2
Uptake of CP-I was determined by analysis of the in vitro assay samples using an optimized LC-high resolution mass spectrometry (HRMS) method. In brief, dried samples were reconstituted in 150 µL of 0.1% formic acid and analyzed by LC-HRMS. Analyte separation and detection was achieved using a Shimadzu Nexera high performance LC system (Shimazdu Scientific, MA, USA) coupled to a Sciex API-6600 Q-TOF (time of flight) mass spectrometer with a Turbo IonDrive source (Sciex Corporation, MA, USA). Chromatographic separation was achieved using a Waters Acquity BEH C18 1.7µ 2.1 mm x 100 mm column and a binary mobile phase system consisting of 0.1% v/v formic acid and 0.1% v/v formic acid in acetonitrile, as mobile phase A and B, respectively. The column temperature was held at 60 °C and the flow rate was 0.55 mL/minute. The gradient program had initial conditions of 5% B which was held for 0.9 min, followed by a linear ramp to 95% B over 5.1 min, a hold for 1.0 min, and a return to starting conditions over 0.1 min with re-equilibration for 0.9 min (total run time of 8.0 min). Analyte detection was achieved using an API-6600 Q T-OF mass spectrometer with electrospray ionization (ESI). The mass spectrometer was operated in both TOF-MS and TOF-MS/MS mode with data collected over a 60 to 670 dalton mass range. TOF-MS/MS data were collected in the high-resolution mode. Quantification of CP-I levels was assessed using targeted TOF-MS/MS data with accumulation times of 150 and 35 ms, respectively, for CP-I and the internal standard (ISTD) verapamil. […]

SMILES | % inhibition at the highest concentration tested (OAT3; OAT3 (E3S), highest concentration 300 µM) [%] | Fraction Inhibited (OAT3) | Triggers Drug Interaction Cutoff (OAT3) | Cmax,u/IC50 ratio (OAT3) | IC50 (OAT3) [µM] | inhibition of CYP1A2 (CYP1A2; classification in words) | contribution of CYP1A2 pathway to metabolism of ritlecitinib (CYP1A2; ref data not published) [%] | inhibition of CYP3A (CYP3A; classification in words) | contribution of CYP3A pathway to metabolism of ritlecitinib (CYP3A; ref data not published) [%] | Triggers Drug Interaction Cutoff (OATP1B1; OATP1B1 (CP-I)) | R-value (OATP1B1; OATP1B1 (CP-I), 1 + (Imax,inlet,u/IC50), cutoff 1.1 (FDA), 1.04 (EMA)) | Fraction Inhibited (OATP1B1; OATP1B1 (CP-I), Imax,inlet,u/(Imax,inlet,u + IC50) (Eq. 1)) | IC50 (OATP1B1; hepatic OATP1B1, CP-I 0.1 µM as substrate, 10 min, HEK293, mean ± SD, n = 3) [µM] | Fraction Inhibited (OAT3; listed as ritlecitinib)
C[C@H]1CC[C@@H](Nc2ncnc3[nH]ccc23)CN1C(=O)CCSC[C@H](N)C(=O)O [M2] | 43 | < 0.01 | No | < 0.01 | > 300 | – | – | – | – | – | – | – | – | –
C=CC(=O)N1C[C@H](Nc2ncnc3[nH]ccc23)CC[C@@H]1C [Ritlecitinib, ritlecitinib] | – | 0.1 | Yes | 0.11 | 41 ± 3 | moderate inhibitor | < 25 | moderate inhibitor | < 25 | Yes | 1.12 | 0.1 | 257 ± 8 | ≤ 0.1
